The values below come from patent US8889696B2, “Substituted pyrido[2,3-d]pyrimidin-7(8H)-ones and therapeutic uses thereof” (Temple University—Of The Commonwealth System Of Higher …, priority 2009, dated 2014).

In series [1] the test system is DU145 (prostate cancer). The series is described as follows: Effect on tumor cell lines (Latham assay), DU145. To be noted: Homo sapiens, DU-145; DU145 cells, examined 96 hours after treatment; read-out: Potencies (IC50) DU 145. In kind it is cell-based. Here is the method: (§1) The plated cells were treated 24 hours later with a compound of the invention dissolved in DMSO at multiple concentrations ranging from 0.01 μM to 100 μM. […] When necessary, the total number of viable cells was determined by trypsinizing the wells and counting the number of viable cells, as determined by trypan blue exclusion, using a hemacytometer.

Series [2] deals with K562 (chronic myelogenous leukemia). The series can be described thus: Effect on tumor cell lines (Latham assay), K562. The series is classed as cell-based. To be noted: Homo sapiens; K562 cells, examined 96 hours after treatment; read-out: Potencies (IC50) K 562. Here is the method: as §1
For series [3], the system named is hMSC (human marrow stem cell). The series is described as follows: Normal cell killing, hMSC. To be noted: concentration 5-fold higher than a concentration that resulted in tumor cell killing. In kind it is cell-based. The method, then: (§2) The effect of the compounds of the invention on tumor cells was determined by the assay described by Latham et al., Oncogene 12:827-837 (1996). Tumor cells K562 (chronic myelogenous leukemia; leukemia cell line +ve for Bcr-Abl) or DU145 (prostate cancer) were plated in 12-well dishes at a cell density of 2.5×10^4 cells well. The plated cells were treated 24 hours later with a compound of the invention dissolved in DMSO at multiple concentrations ranging from 0.01 μM to 100 μM. The plates were examined 96 hours later under an inverted microscope, Olympus CK-2 using an 10× objective, and compound activity was noted by physical observation. When necessary, the total number of viable cells was determined by trypsinizing the wells and counting the number of viable cells, as determined by trypan blue exclusion, using a hemacytometer.
(§3) Utilizing a similar procedure, the compounds of Example 12 and Example 40 were tested on two normal cell lines: HFL (human fibroblast) and hMSC (human marrow stem cell).

The subject of series [4] is HFL (human fibroblast). The series is described as follows: Normal cell killing, HFL. The series is classed as cell-based. To be noted: concentration 5-fold higher than a concentration that resulted in tumor cell killing. Here is the method: as §2, §3
The target of series [5] is recombinant Plk1 (Homo sapiens (Human), UniProt P53350).
Series [6] concerns the target recombinant Plk3 (Homo sapiens (Human), UniProt Q9H4B4). The series can be described thus: Plk kinase inhibition assay (32P-ATP, casein). The series is classed as biochemical. The following applies: 5 μM ATP, FIG. 1. The method, then: (§4) Ten ng of recombinant Plk1, Plk2, Plk3 or Plk4 kinase were incubated with the indicated concentrations of compound for 30 minutes at room temperature. Kinase reactions were started by the addition of substrate mix (5 μM ATP, 10 μCi γ^32P-ATP, 1 μg α-casein, 10 mM MgCl2) for 15 minutes at 30° C. Reactions were stopped by 3% phosphoric acid, spotted on PE30 filtermat, washed, dried and subjected to scintillation counting. Data is plotted (after background subtraction) using GraphPad Prism4 software as a non-linear regression plot with variable slope to obtain IC50 values.
(§5) Kinase reactions were started by the addition of substrate mix (5 μM ATP, 10 μCi γ^32P-ATP, 1 μg α-casein, 10 mM MgCl2) for 15 minutes at 30° C. Reactions were stopped by 3% phosphoric acid, spotted on PE30 filtermat, washed, dried and subjected to scintillation counting. Data is plotted (after background subtraction) using GraphPad Prism4 software as a non-linear regression plot with variable slope to obtain IC50 values.

In series [7] the target is PLK2 (Homo sapiens (Human), UniProt Q9NYY3). The series is described as follows: Plk kinase inhibition assay (32P-ATP, casein). The series is classed as biochemical. The following applies: 5 μM ATP, FIG. 1. Here is the method:
as §4, §5

Series [8] has as its target PBK/TOPK (Homo sapiens (Human), UniProt Q96KB5). The series is described as follows: Kinase profiling. The series is classed as biochemical. To be noted: 10 μM ATP.
In series [9] the target is WNK2 (Homo sapiens (Human), UniProt Q9Y3S1). The series can be described thus: Kinase profiling. The series is classed as biochemical. The following applies: 10 μM ATP.
Sequence of WNK2 (Q9Y3S1 whole entry): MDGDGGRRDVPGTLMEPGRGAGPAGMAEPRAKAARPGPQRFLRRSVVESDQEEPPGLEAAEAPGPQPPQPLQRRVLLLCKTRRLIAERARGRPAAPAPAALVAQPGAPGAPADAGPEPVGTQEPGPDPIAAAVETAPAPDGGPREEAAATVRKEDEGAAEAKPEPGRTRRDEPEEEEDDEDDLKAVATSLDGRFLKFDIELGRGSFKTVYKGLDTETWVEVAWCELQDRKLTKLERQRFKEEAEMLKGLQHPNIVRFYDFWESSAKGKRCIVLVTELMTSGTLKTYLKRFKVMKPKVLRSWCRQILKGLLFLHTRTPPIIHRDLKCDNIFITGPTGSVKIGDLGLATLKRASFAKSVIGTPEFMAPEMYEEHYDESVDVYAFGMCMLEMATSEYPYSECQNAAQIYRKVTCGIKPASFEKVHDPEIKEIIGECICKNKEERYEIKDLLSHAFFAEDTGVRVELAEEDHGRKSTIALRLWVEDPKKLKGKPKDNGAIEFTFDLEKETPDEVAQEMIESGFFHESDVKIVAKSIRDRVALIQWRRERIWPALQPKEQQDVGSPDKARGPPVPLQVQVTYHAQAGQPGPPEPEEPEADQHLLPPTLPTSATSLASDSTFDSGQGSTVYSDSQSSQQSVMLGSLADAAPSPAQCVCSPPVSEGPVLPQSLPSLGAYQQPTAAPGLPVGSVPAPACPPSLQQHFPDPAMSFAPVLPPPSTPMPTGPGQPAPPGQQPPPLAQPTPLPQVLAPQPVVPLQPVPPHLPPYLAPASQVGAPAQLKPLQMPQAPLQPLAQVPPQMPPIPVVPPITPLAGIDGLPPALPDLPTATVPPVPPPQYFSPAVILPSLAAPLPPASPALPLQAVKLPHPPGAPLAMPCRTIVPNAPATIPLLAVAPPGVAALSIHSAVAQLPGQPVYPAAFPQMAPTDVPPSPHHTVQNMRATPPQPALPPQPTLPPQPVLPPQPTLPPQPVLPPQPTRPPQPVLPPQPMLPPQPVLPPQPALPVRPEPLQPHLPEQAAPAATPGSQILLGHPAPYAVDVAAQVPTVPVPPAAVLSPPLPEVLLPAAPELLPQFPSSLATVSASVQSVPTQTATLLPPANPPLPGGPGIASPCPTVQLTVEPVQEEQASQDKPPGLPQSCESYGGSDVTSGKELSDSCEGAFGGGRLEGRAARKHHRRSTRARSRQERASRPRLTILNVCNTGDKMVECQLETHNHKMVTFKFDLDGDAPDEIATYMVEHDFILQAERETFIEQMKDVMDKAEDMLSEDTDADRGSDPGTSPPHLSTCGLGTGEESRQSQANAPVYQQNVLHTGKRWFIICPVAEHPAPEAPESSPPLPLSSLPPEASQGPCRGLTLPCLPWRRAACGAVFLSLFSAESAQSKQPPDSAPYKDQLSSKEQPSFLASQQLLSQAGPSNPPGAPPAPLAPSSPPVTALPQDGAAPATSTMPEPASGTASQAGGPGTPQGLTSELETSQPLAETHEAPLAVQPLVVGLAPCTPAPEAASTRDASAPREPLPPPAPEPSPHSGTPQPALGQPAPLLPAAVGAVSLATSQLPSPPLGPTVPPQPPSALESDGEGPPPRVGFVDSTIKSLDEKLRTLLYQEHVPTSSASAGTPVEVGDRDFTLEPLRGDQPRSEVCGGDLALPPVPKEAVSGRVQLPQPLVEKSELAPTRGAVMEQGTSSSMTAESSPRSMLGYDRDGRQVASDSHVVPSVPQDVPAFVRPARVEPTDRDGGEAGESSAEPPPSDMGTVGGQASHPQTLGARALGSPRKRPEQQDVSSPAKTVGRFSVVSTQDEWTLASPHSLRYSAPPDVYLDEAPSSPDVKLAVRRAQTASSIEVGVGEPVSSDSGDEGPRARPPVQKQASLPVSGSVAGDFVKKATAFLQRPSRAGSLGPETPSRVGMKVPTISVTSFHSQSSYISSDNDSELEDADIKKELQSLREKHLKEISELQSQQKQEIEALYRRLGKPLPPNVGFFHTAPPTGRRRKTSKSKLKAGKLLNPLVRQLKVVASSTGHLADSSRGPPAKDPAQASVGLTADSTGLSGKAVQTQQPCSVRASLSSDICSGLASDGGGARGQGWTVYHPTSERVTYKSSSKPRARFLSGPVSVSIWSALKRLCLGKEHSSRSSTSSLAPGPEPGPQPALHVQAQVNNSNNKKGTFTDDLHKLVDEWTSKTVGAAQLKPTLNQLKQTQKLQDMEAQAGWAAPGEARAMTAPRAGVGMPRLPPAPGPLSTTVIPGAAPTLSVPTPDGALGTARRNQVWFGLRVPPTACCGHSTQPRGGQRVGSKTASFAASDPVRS

Sequence of recombinant Plk1 (P53350 whole entry): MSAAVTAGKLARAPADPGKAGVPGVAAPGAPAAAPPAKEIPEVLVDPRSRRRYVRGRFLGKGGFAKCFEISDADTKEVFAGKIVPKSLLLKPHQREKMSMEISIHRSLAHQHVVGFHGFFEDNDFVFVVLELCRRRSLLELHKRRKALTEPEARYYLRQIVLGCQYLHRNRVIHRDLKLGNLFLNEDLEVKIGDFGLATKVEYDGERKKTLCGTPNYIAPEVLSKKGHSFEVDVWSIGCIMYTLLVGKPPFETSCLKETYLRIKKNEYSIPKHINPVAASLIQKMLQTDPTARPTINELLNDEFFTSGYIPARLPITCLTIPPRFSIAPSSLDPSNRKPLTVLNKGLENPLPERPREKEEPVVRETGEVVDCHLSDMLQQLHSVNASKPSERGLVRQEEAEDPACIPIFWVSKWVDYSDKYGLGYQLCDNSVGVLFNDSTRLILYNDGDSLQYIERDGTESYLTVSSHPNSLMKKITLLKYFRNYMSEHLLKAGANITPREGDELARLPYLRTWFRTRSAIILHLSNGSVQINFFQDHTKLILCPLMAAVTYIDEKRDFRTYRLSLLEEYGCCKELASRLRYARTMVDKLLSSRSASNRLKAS
Sequence of PLK2 (Q9NYY3 whole entry): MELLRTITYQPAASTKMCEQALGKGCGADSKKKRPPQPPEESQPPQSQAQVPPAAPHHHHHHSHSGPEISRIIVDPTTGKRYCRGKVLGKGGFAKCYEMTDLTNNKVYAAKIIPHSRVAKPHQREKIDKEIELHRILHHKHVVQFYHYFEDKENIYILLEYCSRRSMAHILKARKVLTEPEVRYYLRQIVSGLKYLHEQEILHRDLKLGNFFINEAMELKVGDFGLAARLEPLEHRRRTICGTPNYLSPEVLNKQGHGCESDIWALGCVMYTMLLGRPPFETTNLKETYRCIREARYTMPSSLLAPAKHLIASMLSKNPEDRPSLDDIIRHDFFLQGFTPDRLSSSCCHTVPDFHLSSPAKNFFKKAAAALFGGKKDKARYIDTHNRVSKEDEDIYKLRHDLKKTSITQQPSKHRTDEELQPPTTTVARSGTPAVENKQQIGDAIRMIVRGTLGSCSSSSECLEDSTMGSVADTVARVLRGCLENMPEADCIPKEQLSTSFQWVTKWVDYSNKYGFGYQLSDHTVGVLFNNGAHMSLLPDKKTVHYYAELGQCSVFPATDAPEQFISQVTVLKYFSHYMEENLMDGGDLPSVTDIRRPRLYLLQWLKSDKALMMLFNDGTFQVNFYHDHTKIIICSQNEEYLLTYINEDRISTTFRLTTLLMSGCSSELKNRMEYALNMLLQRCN
Sequence of recombinant Plk3 (Q9H4B4 whole entry): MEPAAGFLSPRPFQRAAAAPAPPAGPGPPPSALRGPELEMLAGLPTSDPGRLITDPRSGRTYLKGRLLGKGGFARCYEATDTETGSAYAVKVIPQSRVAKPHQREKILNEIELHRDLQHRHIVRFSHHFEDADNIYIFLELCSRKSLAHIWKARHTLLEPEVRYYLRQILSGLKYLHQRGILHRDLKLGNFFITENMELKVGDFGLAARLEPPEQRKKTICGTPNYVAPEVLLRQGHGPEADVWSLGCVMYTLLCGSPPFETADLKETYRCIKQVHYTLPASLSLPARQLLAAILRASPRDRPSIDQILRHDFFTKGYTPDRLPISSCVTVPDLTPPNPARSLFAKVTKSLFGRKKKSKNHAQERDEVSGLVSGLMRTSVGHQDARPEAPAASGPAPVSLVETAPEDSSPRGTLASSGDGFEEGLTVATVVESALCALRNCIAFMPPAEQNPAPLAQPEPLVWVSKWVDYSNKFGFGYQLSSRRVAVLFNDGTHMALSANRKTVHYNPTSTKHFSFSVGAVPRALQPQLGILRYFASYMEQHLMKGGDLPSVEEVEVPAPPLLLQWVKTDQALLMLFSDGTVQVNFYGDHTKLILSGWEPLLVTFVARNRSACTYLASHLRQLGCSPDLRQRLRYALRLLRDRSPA
Sequence of PBK/TOPK (Q96KB5 whole entry): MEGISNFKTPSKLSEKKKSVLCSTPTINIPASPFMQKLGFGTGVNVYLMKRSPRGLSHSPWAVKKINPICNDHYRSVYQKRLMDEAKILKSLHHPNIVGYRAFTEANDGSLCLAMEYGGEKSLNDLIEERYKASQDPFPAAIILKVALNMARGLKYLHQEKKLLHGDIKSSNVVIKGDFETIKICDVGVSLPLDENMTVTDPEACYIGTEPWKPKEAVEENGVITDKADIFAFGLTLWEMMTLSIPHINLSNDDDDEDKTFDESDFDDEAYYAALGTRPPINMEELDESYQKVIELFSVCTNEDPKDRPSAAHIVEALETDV

Take `Cn1c(=O)c(S(=O)(=O)c2ccc(F)cc2F)cc2cnc(Nc3ccc4[nH]ncc4c3)nc21` [Example 40, 2-(1H-indazol-5-ylamino)-6-(2,4-difluorophenylsulfonyl)-8-methylpyrido[2,3-d]pyrimidin-7(8H)-one]: the IC50 in series [1] and in series [2] was 10 to 25 µM each time. In addition, the “killing of normal cells” value in series [3] and in [4] was “did not kill the normal cells” in each case.
Turning to `COC[C@H]1OC(=O)c2coc3c2[C@@]1(C)C1=C(C3=O)[C@@H]2CCC(=O)[C@@]2(C)C[C@H]1OC(C)=O` [Wortmanin, wortmanin, reference compound], in series [5], the “inhibitory activity against PLK-1” value is on record as “nanomolar inhibitory activity”. Moreover, the “inhibitory activity against PLK-3” value in [6] is reported as “nanomolar inhibitory activity”. Besides, the “inhibitory activity against PLK-2” value in series [7] was “nanomolar inhibitory activity”.
For the molecule `Cn1c(=O)c(S(=O)(=O)c2ccc(F)cc2)cc2cnc(Nc3cnc4[nH]ccc4c3)nc21` [Example 12, 2-(1H-pyrrolo[2,3-b]pyridin-5-ylamino)-6-(4-fluorophenylsulfonyl)-8-methylpyrido[2,3-d]pyrimidin-7(8H)-one], the melting point fell in the range of 274 to 280 °C. In series [1], the concentration for half-maximal inhibition (IC50) was less than 1 µM. The IC50 in series [2] is less than 1 µM. Further, the “killing of normal cells” value in series [3] is “did not kill the normal cells”. Further, in series [4], the “killing of normal cells” value is reported as “did not kill the normal cells”.
Take Staurosporine: the IC50 amounted to 0.433 µM in series [8] and 8.09 µM in series [9].

Broadly, the IC50 is the concentration at which inhibition is half-maximal. By melting point is commonly meant the temperature, or range, at which the solid turns liquid.
